Test results from patent publication US4036961A (priority 1972, dated 1977).
Structures can show the parent of a compound that is named as a salt.

Tests used:
[1] = system: Cl. perfringens; settings: disclosed in British Pat. No. 1303171 and Application No. 36289/70; cited from earlier work
[2] = system: Derm. dermatonomous; settings: disclosed in British Pat. No. 1303171 and Application No. 36289/70; cited from earlier work
[3] = molecular target: hydroxymethyldihydropteridine pyrophosphokinase (HMPPS) (Escherichia coli, UniProt P26281); assay: Inhibition of the enzymes of dihydropteroate biosynthesis (ATP-γ-P32 transfer assay for HMPPS; dihydropteroate-C14 formation for synthetase); format: biochemical; settings: enzymes from E. coli extract; tests (a) HMPPS and (b) synthetase of Example 5; read-out: concentration giving 50% inhibition
Sequence of hydroxymethyldihydropteridine pyrophosphokinase (HMPPS) (P26281 whole entry): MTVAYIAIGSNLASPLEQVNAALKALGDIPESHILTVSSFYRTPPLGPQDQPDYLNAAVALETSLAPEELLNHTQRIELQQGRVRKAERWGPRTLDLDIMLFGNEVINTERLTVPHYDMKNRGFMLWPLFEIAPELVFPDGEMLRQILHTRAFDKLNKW
Experimental: The inhibiting activity against HMPPS of a selected compound of formula (I) can, for instance, be tested by monitoring the transfer of the terminal phosphate of adenosine triphosphate ATP-γ-P^32 to `dihydropteridine`. […] Such inhibition may, for instance, be easily and simply carried out by incubating an extract of E. coli with pAB-7-C^14, ATP, Mg and `dihydropteridine`. The formation of the dihydropteroate-C^14 can be quantitatively assayed after separating the unreated pAB substrate, for instance by chromatography. […] Preferably the value is 25 μM or less, such as in the range between […]. Generally a value below 7μM is desirable. […]
phosphate of ATP-γ-P^32 to Pt could be monitored and correlated […]
Tubes 1 to 9 containing the amounts of components shown in the Table, were filled up to 200μl with distilled water, incubated for 60 minutes at 37° C and then chilled on ice. […] The charcoal and the filter were then radioactively counted.
The radioactive count from the contents of tubes 2 and 3 was taken as the maximum count, since these tubes contained no test compound and thus gave 0% enzyme inhibition. The percentage inhibition produced by the contents of the remaining tubes could then be calculated by relating their radioactive count to the maximum, as determined above. […]

Structure (SMILES)	bacteriostatic activity [1]	bacteriostatic activity [2]	IC50 [3]
CC1(C)Nc2nc(N)nc(O)c2N=C1CO [2-amino-4-hydroxy-6-hydroxymethyl-7,7-dimethyl-7,8-dihydropteridine]	particularly effective	particularly effective	–
CC1(C)Nc2nc(N)nc(O)c2N=C1C(Br)Br [the 6-dibromomethyl analogue, 2-Amino-4-hydroxy-6-dibromomethyl-7,7-dimethyl-7,8-dihydropteridine hydrobromide]	–	–	25 µM
CC1(C)Nc2nc(N)nc(O)c2N=C1CBr [2-Amino-4-hydroxy-6-bromomethyl-7,7-dimethyl-7,8-dihydropteridine hydrobromide]	–	–	5 µM
CC1=Nc2c(O)nc(N)nc2NC1(C)C [2-amino-4-hydroxy-6-methyl-7,7-dimethyl-7,8-dihydropteridine]	particularly effective	particularly effective	–
